Legend:
[1] = test system: longitudinal muscle of guinea pig ileum; assay: Calcium antagonism: inhibition of KCl-induced contraction of ileum longitudinal muscle; details: Cavia porcellus, 1 h; 10^-8 M; 60 min after addition; 80 mM KCl contraction = 100%; 37° C.; read-out: Inhibition rate
Protocol: A guinea pig having a body weight ranging from 350 g to 400 g was exsanguinated to death and laparotomized, to extract ileum. According to the method of Rosenberger et al. (Rosenberger et al., Can. J. Physiol. Pharmacol. 57, 333-347 (1979)), a sample of longitudinal muscle was prepared from the ileum. Then, a mixed gas consisting of 95% oxygen and 5% carbon dioxide was aerated, while the atmosphere was maintained at 37° C. The sample of the longitudinal muscle of the extracted ileum was placed in a magnus tube containing 20 ml of Tyrode solution, and suspended at 0.5 g of tension. As a comparison, 80 mM KCl was administered to contract the longitudinal muscle. Subsequently, 60 min after the addition of each of the test compounds (10^-8 M), the contraction with KCl was again induced. The level of the contraction obtained by the administration of 80 mM KCl was assigned to 100%, and the inhibition rate thereto was determined.

[2] = test system: spontaneous hypertensive rats; assay: Antihypertensive action in spontaneous hypertensive rats (SHR), oral administration; assay type: in vivo, rat; details: 10 mg/kg orally, (basal - lowest blood pressure)/basal x 100
Protocol: Test compounds were orally administered to spontaneous hypertensive rats (abbreviated as "SHR" hereinafter) to examine antihypertensive actions thereof.
Two to three days after the operation, the catheter was drawn out from the dorsum cervical part of the rat, and was connected to a blood-pressure measuring device (Polygraph RM-6000 manufactured by Nippon Koden K. K.). Blood pressure and heart rate were measured under the condition without anesthesia and restraint. The test compounds were suspended in 0.5% carboxymethylcellulose for oral administration. To the basal blood pressure obtained by measuring blood pressure over four hours, the lowest blood pressure decreased by the test compounds was used to determine the rate of blood-pressure decrease.
Rate of blood-pressure decrease (%)=(A-B)/A×100
The compound numbers correspond to those indicated in Examples.

[3] = Acute toxicity test, intravenous, mice; details: mouse, in vivo, male ddY mice, observed two weeks
Protocol: Male ddY mice (5-7 weeks old) were divided into groups each consisting of 4 mice. The test compounds were dissolved in physiological saline containing 50% polyethylene glycol 400, which was then administered intravenously to the mice, and they were put under observation over two weeks. The analysis was done following the Van der Worden method.

SMILES	inhibition at 0.01 µM [1] [%]	Rate of blood pressure decrease [2] [%]	LD50 at 336 h [3] [mg/kg]
COC(=O)C1=C(C)NC(C)=C(C(=O)OC2CC(C)(C)Oc3ccccc32)C1c1cccc(Cl)c1Cl (stereo not drawn) [Compound 21, 3-(3,4-dihydro-2,2-dimethyl-2H-benzo[b]pyran-4-yl)5-methtyl 1,4-dihydro-2,6-dimethyl-4-(2,3-dichorophenyl)pyridine-3,5-dicarboxylate]	69	37.3	29.7
COC(=O)C1=C(C)NC(C)=C(C(=O)OC)C1c1ccccc1[N+](=O)[O-] [Nifedipine, reference compound]	98	24.3	–
CCOC(=O)C1=C(C)NC(C)=C(C(=O)OC2CC(C)(C)Oc3ccccc32)C1c1cccc(Cl)c1Cl (stereo not drawn) [Compound 27, 3-(3,4-dihydro-2,2-dimethyl-2H-benzo[b]pyran-4-yl)5-ethyl 1,4-dihydro-2,6-dimethyl-4-(2,3-dichlorophenyl)pyridine-3,5-dicarboxylate]	42	36.9	–
COC(=O)C1=C(C)NC(C)=C(C(=O)OC2CCOc3ccccc32)C1c1cccc(Cl)c1Cl (stereo not drawn) [Compound 3]	81	35.1	–
